According to US20050209157A1, “Short bioactive peptides and methods for their use” (priority 2001, published 2005):
Where two headings read alike, the source gives them in different places. No end group written: not given here.

Experiments:
[1] = test system: yeast (Saccharomyces cerevisiae); assay: Antimicrobial assay I, yeast assay in RPMI 1640; format: cell-based; conditions: RPMI 1640 media
WI38 = conditions: MTT, 24 hours with peptide; normal fibroblast line
Experimental: (§3) Viability of cells is determined by the dye response. In the following procedure, approximately 1.5×10^4 cells per well were added and viability was determined with the cells in a semi-confluent state. The assay was performed in a 96-well microtiter plate. After addition of peptide, the plate was set for 24 hours. MTT (5 mg/ml in phenol red-free RPMI-1640, 20 μl) was added to each well including positive control wells untreated with peptide. The plate was incubated at 37° C. for 4 hours. The liquid contents of each well was removed, and isopropanol with 0.1 M HCl (100 μl) was added to each well. The plate was sealed with parafilm to prevent evaporation of the isopropanol. The plate is allowed to rest for 5-10 minutes in order to solubilize the precipitate. Purified water (100 μl) was added to each well. Absorbance was determined with an ELISA Reader instrument. Color intensity at 540 nm is proportional to viability of cells.
(§4) WI38 (ATCC No. CCL75) is a normal fibroblast line of lung diploid cells, MCF7 (ATCC No. HTB22) is a breast adenocarcinoma tumor cell line, SW480 (ATCC No. CCL228) is a colon adenocarcinoma tumor cell line, BMKC is a cloned melanoma line derived from Bowes melanoma line HMCB (ATCC No. CRL9607), H1299 (ATCC No. CRL5803) is a lung large cell carcinoma tumor line, HeLaS3 (ATCC No. CCL2.2) is a cervical epitheleal carcinoma tumor cell line, and PC3 (ATCC No. CRL1435) is a prostate adenocarcinoma tumor cell line.

[2] = test system: Pseudomonas aeruginosa ATCC 9027; assay: Antimicrobial assay I, MIC by OD measurement; format: cell-based; conditions: 37° C. for 24 hours, absorbance 620 nm
[3] = test system: Staphylococcus aureus ATCC 6538; assay: Antimicrobial assay I, MIC by OD measurement; format: cell-based; conditions: 37° C. for 24 hours, absorbance 620 nm
in vitro = conditions: human, WI38 normal lung fibroblast cells, LD50 WI38, WI38 normal lung fibroblast line, MTT, 24 hours with peptide
Experimental: as §3, §4

P. aeruginosa H374 = format: cell-based, Pseudomonas aeruginosa; conditions: for MIC Cm-comb.: MIC of chloramphenicol with peptide at ¼ MIC; for MIC Nal-comb.: MIC of nalidixic acid with peptide at ¼ MIC; for FIC Index: 0.5 or less = synergy
In short: (§1)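 Synergy against efflux-mutant strains: two-fold dilutions of nalidixic acid or chloramphenicol tested with peptide held at ¼ of its MIC.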

P. aeruginosa H774 = format: cell-based, Pseudomonas aeruginosa; conditions: P. aeruginosa H744; nalidixic acid + peptide at ¼ MIC; 0.5 or less = synergy
In short: as §1

P. aeruginosa = format: cell-based, Pseudomonas aeruginosa; conditions: P. aeruginosa H744; MIC of nalidixic acid with peptide at ¼ MIC
In short: as §1

SW480 = assay: Anti-cancer assay, MTT, LD50; format: cell-based; conditions: SW480 colon adenocarcinoma line, 24 hours with peptide
From the text: (§2) Numbers are LD50 values (μg/mL).

H1299 = assay: Anti-cancer assay, MTT, LD50; format: cell-based; conditions: 24 hours with peptide, lung large cell carcinoma
From the text: as §2

MCF7 = assay: Anti-cancer assay, MTT, LD50; format: cell-based; conditions: MCF7 breast adenocarcinoma line, MTT, 24 hours with peptide
From the text: as §2

HeLaS3 = assay: Anti-cancer assay, MTT, LD50; format: cell-based; conditions: 24 hours with peptide, cervical carcinoma
From the text: as §2

PC3 = assay: Anti-cancer assay, MTT, LD50; format: cell-based; conditions: 24 hours with peptide, prostate adenocarcinoma
From the text: as §2

BMKC = assay: Anti-cancer assay, MTT, LD50; format: cell-based; conditions: BMKC cloned melanoma line, 24 hours with peptide
From the text: as §2

collagen = assay: Collagen stimulation, ELISA on fibroblast cell lines; format: cell-based
Experimental: Fibroblast cell lines were cultured under standard conditions and assayed for collagen and laminin using an ELISA system manufactured by Panvera (Madison, Wis.). Antibodies for collagen and laminin manufactured by Takara Shuzo Co., Ltd Japan. […] The other three peptides tested neither stimulated nor inhibited production (i.e. no effect was observed).

[4] = chloramphenicol + peptide at ¼ MIC
[5] = nalidixic acid + peptide at ¼ MIC, FIC=0.25+MIC comb/MIC alone

Row | Substance | yeast (MIC or MFC) [1] | WI38 LD50 (WI38) [µg/mL] | paerug9027 (MIC) [2] | staph6538 (MIC) [3] | CC50 at 24 h (in vitro) [mg/L] | MIC Cm-comb. (P. aeruginosa H374) [mg/L] | MIC Nal-comb. (P. aeruginosa H374) [mg/L] | FIC Index (P. aeruginosa H374; [4]) | FIC Index (P. aeruginosa H374; [5]) | FIC Index (P. aeruginosa H774) | MIC Nal-comb. (P. aeruginosa) [mg/L] | LD50 SW480 (SW480) | H1299 LD50 (H1299) [µg/mL] | LD50 MCF7 (MCF7) [µg/mL] | HeLaS3 LD50 (HeLaS3) | PC3 LD50 (PC3) [µg/mL] | LD50 BMKC (BMKC) | Collagen stimulation (collagen) [%]
1 | FAVGLRAIKRALKKLRRGVRKVAKDL-NH2 [P157, reference compound] | > (> indicates greater than 200 μg/mL) | 500 | > (> indicates greater than 200 μg/mL) | 200 mg/L | 500 | 8 | 2500 | 0.75 | 0.75 | 1.25 | 624 | 530 µg/mL | 315 | 240 | > (> indicates greater than 1000) | 375 | 600 µg/mL | –
2 | MPKWKVFKKIEKVGRNIRNGIVKAGPAIAVLGEAKALG-NH2 [P12, reference compound] | > (> indicates greater than 200 μg/mL) | 950 | 100 mg/L | > (> indicates greater than 200 μg/mL) | 950 | 16 | 2500 | 1.25 | 0.75 | 0.75 | 312 | > (> indicates greater than 1000) | 720 | 540 | > (> indicates greater than 1000) | 630 | > (> indicates greater than 1000) | 0
3 | FALKALKKLKKALKKAL-NH2 [P153] | 100 mg/L | 130 | 25 mg/L | 5 mg/L | 130 | 8 | 5000 | 0.75 | 1.25 | 1.25 | 624 | 61 µg/mL | 50 | 64 | 140 µg/mL | 97 | 165 µg/mL | 120
